Test results: patent publication US8598129B2, “Topical application of ivermectin for the treatment of dermatological conditions/afflictions” (Galderma S.A., priority 2003, dated 2013)

Experiment: solubility of ivermectin in various solvents
Format: physicochemical
Description: The table below illustrates the solubility of ivermectin in various solvents: […]

Ivermectin
Maximum % solubility of ivermectin in the solvent concerned (weight/weight) (solvent: N-methyl-2-pyrrolidone): 58.13 % (weight/weight) | Maximum % solubility of ivermectin in the solvent concerned (weight/weight) (solvent: Propylene glycol): 21.83 % (weight/weight) | Maximum % solubility of ivermectin in the solvent concerned (weight/weight) (solvent: Propylene glycol/oleyl alcohol (4 parts/2 parts)): 27.31 % (weight/weight) | Maximum % solubility of ivermectin in the solvent concerned (weight/weight) (solvent: Triacetin): 7.22 % (weight/weight)
